# According to patent US8455544B2, “Synthetic triterpenoids and methods of use in the treatment of disease” (Reata Pharmaecuticals, Inc., priority 2008, dated 2013):
# Read-outs that look alike come from different tables or passages of the source.
# Legend:
# [1] = cynomolgus monkey, in vivo, po, 4.1 mg/kg
# [2] = test system: IFNγ-induced NO production in RAW264.7 macrophages; test: Suppression of IFNγ-induced NO production (Griess reagent system); type: cell-based; conditions: Mus musculus; RAW264.7, pre-treated 2 hours, then 20 ng/ml IFNγ for 24 hours
# RAW264.7 macrophages = test: Cell viability, WST-1 reagent; type: cell-based; conditions: Mus musculus, RAW264.7 (20 ng/ml IFNγ)
# [3] = test system: NQO1 in Hepa1c1c7 murine hepatoma cells; conditions: concentration required to induce a two-fold increase in expression of NQO1, Hepa1c1c7 cells; cited from earlier work
# [4] = design: unit not given here; conditions: six-month, cited from earlier work
Molecule,IC50 [2] [nM],IC50 (RAW264.7 macrophages) [nM],NQO1 CD [3] [nM],further results
COC(=O)[C@]12CCC(C)(C)C[C@H]1[C@H]1C(=O)C=C3[C@@]4(C)C=C(C#N)C(=O)C(C)(C)[C@@H]4CC[C@@]3(C)[C@]1(C)CC2 [Form B],–,–,–,Bioavailability compared with Form A [1]: higher
"CC1(C)CC[C@]2(C(=O)O)CC[C@]3(C)[C@H](C(=O)C=C4[C@@]5(C)C=C(C#N)C(=O)C(C)(C)[C@@H]5CC[C@]43C)[C@@H]2C1 [RTA 401, 2-cyano-3,12-dioxooleane-1,9(11)-dien-28-oic acid]",~10,> 200,2.3,–
CC1(C)CC[C@]2(C(=O)n3ccnc3)CC[C@]3(C)[C@H](C(=O)C=C4[C@@]5(C)C=C(C#N)C(=O)C(C)(C)[C@@H]5CC[C@]43C)[C@@H]2C1 [RTA 403],~0.6,100,3.3,–
CC1(C)CC[C@]2(C(=O)NCC(F)(F)F)CC[C@]3(C)[C@H](C(=O)C=C4[C@@]5(C)C=C(C#N)C(=O)C(C)(C)[C@@H]5CC[C@]43C)[C@@H]2C1 [RTA 404],5.8,100,–,–
CCNC(=O)[C@]12CCC(C)(C)C[C@H]1[C@H]1C(=O)C=C3[C@@]4(C)C=C(C#N)C(=O)C(C)(C)[C@@H]4CC[C@@]3(C)[C@]1(C)CC2 [RTA 405],6,~200,–,–
N[C@@H](CC(=O)N1CCn2c(nnc2C(F)(F)F)C1)Cc1cc(F)c(F)cc1F [Sitagliptin],–,–,–,"Change (Hemoglobin A1c) ([4]; +/− metformin with A1c ≧ 7.5, mean A1c 8.9, duration of DM 4.4 years): −0.7; Change (Hemoglobin A1c) ([4]; +/− placebo with A1c ≧ 7.0, mean A1c 8.0, duration of DM 4.3 years): −0.8; Change (Hemoglobin A1c) ([4]; pioglitazone +/− sitagliptin, A1c ≧ 7.0, mean A1c 8.1, duration of DM 6.1 years): −0.7"
CC1(C)CC[C@]2(C#N)CC[C@]3(C)[C@H](C(=O)C=C4[C@@]5(C)C=C(C#N)C(=O)C(C)(C)[C@@H]5CC[C@]43C)[C@@H]2C1 [TP-225],~0.4,75,0.28,–
Pramlintide acetate,–,–,–,"Change (Hemoglobin A1c) ([4]; +/− insulin, mean A1c 9.1, duration of DM 13 years): −0.4"
